{"source": "ChEMBL document CHEMBL4130462", "about": "“Natural isoflavone biochanin A as a template for the design of new and potent 3-phenylquinolone efflux inhibitors against Mycobacterium avium” (Eur J Med Chem, 2017)", "key": {"[1]": {"tested_on": "Mycolicibacterium smegmatis", "assay": "Antimycobacterial activity against Mycobacterium smegmatis str. MC2 155 assessed as reduction in bacterial viability incubated for 3 days by MTT assay", "assay_type": "organism-based", "conditions": "72 h"}, "Mycobacterium avium [2]": {"tested_on": "Mycobacterium avium", "assay": "Antimycobacterial activity against Mycobacterium avium ATCC 25291 assessed as reduction in bacterial viability incubated for 3 days by MTT assay", "assay_type": "organism-based", "conditions": "mycobacterium avium subsp. avium atcc 25291, 72 h"}, "[3]": {"assay": "Safety index, ratio of MTC for test compound to MTC for chlorpromazine for cytotoxicity in human monocyte-derived macrophages", "assay_type": "cell-based, Macrophage cell line"}, "Mycobacterium avium [4]": {"tested_on": "Mycobacterium avium", "conditions": "72 h", "description": "Antimycobacterial activity against Mycobacterium avium 104 assessed as reduction in bacterial viability incubated for 3 days by MTT assay"}, "Mycobacterium avium [5]": {"tested_on": "Mycobacterium avium", "conditions": "104 mc'2 3"}, "Mycobacterium avium [6]": {"tested_on": "Mycobacterium avium", "conditions": "104 mc'2 3", "remark": "listed apart in the source"}, "Mycobacterium avium [7]": {"tested_on": "Mycobacterium avium", "conditions": "104 mc'2 4"}, "Mycobacterium avium [8]": {"tested_on": "Mycobacterium avium", "conditions": "104 mc'2 4", "remark": "listed apart in the source"}, "Mycobacterium avium [9]": {"tested_on": "Mycobacterium avium", "conditions": "isolate MAV1"}, "Mycobacterium avium [10]": {"tested_on": "Mycobacterium avium", "conditions": "isolate MAV2", "description": "Inhibition of multidrug resistance efflux pump in Mycobacterium avium isolate MAV2 assessed as potentiation of clarithromycin -induced antibacterial activity by measuring clarithromycin MIC at 1/2 MIC incubated for 3 days by MTT assay (Rvb = >1024 ug/ml)"}, "[11]": {"tested_on": "Mycobacterium avium subsp. avium ATCC 25291", "description": "Inhibition of multidrug resistance efflux pump in Mycobacterium avium ATCC 25291 assessed as potentiation of clarithromycin -induced antibacterial activity by measuring clarithromycin MIC at 1/2 MIC incubated for 3 days by MTT assay"}, "Mycobacterium avium [12]": {"tested_on": "Mycobacterium avium", "conditions": "104 mc'2 3", "remark": "listed apart in the source"}, "Mycobacterium avium [13]": {"tested_on": "Mycobacterium avium", "conditions": "104 mc'2 4", "remark": "listed apart in the source"}, "Mycobacterium avium [14]": {"tested_on": "Mycobacterium avium", "conditions": "isolate MAV3"}, "[15]": {"tested_on": "Mycobacterium avium subsp. avium ATCC 25291", "remark": "listed apart in the source"}, "Mycobacterium avium [16]": {"tested_on": "Mycobacterium avium", "conditions": "104 mc'2 3", "remark": "listed apart in the source"}, "Mycobacterium avium [17]": {"tested_on": "Mycobacterium avium", "conditions": "isolate MAV2", "remark": "listed apart in the source"}, "Mycobacterium avium [18]": {"tested_on": "Mycobacterium avium", "conditions": "isolate MAV4"}, "[19]": {"tested_on": "Mycobacterium avium subsp. avium ATCC 25291", "remark": "listed apart in the source"}, "Mycobacterium avium [20]": {"tested_on": "Mycobacterium avium", "conditions": "104 mc'2 3", "remark": "listed apart in the source"}, "Mycobacterium avium [21]": {"tested_on": "Mycobacterium avium", "conditions": "isolate MAV2", "remark": "listed apart in the source"}, "Mycobacterium avium [22]": {"tested_on": "Mycobacterium avium", "conditions": "isolate MAV2", "remark": "listed apart in the source"}, "Mycobacterium avium [23]": {"tested_on": "Mycobacterium avium", "conditions": "isolate MAV3", "remark": "listed apart in the source"}, "Mycobacterium avium [24]": {"tested_on": "Mycobacterium avium", "conditions": "isolate MAV4", "remark": "listed apart in the source"}, "[25]": {"tested_on": "Mycobacterium avium subsp. avium ATCC 25291", "remark": "listed apart in the source"}, "Mycobacterium avium [26]": {"tested_on": "Mycobacterium avium", "conditions": "104"}, "Mycobacterium avium [27]": {"tested_on": "Mycobacterium avium", "conditions": "104 mc'2 3", "remark": "listed apart in the source"}, "Mycobacterium avium [28]": {"tested_on": "Mycobacterium avium", "conditions": "104 mc'2 4", "remark": "listed apart in the source"}, "Mycobacterium avium [29]": {"tested_on": "Mycobacterium avium", "conditions": "isolate MAV2", "remark": "listed apart in the source", "description": "Inhibition of multidrug resistance efflux pump in Mycobacterium avium isolate MAV2 assessed as potentiation of ofloxacin-induced antibacterial activity by measuring ofloxacin MIC at 1/2 MIC incubated for 3 days by MTT assay"}, "Mycobacterium avium [30]": {"tested_on": "Mycobacterium avium", "conditions": "isolate MAV2", "remark": "listed apart in the source", "description": "Inhibition of multidrug resistance efflux pump in Mycobacterium avium isolate MAV2 assessed as potentiation of ofloxacin-induced antibacterial activity by measuring ofloxacin MIC at 1/4 MIC incubated for 3 days by MTT assay"}, "Mycobacterium avium [31]": {"tested_on": "Mycobacterium avium", "conditions": "isolate MAV3", "remark": "listed apart in the source"}, "Mycobacterium avium [32]": {"tested_on": "Mycobacterium avium", "conditions": "isolate MAV4", "remark": "listed apart in the source"}, "[33]": {"tested_on": "Mycobacterium avium subsp. avium ATCC 25291", "remark": "listed apart in the source"}, "[34]": {"tested_on": "Mycobacterium avium subsp. avium ATCC 25291", "remark": "listed apart in the source"}, "Mycobacterium avium [35]": {"tested_on": "Mycobacterium avium", "conditions": "104", "remark": "listed apart in the source"}, "Mycobacterium avium [36]": {"tested_on": "Mycobacterium avium", "conditions": "104 mc'2 3", "remark": "listed apart in the source"}, "Mycobacterium avium [37]": {"tested_on": "Mycobacterium avium", "conditions": "104 mc'2 3", "remark": "listed apart in the source"}, "Mycobacterium avium [38]": {"tested_on": "Mycobacterium avium", "conditions": "isolate MAV1", "remark": "listed apart in the source"}, "Mycobacterium avium [39]": {"tested_on": "Mycobacterium avium", "conditions": "isolate MAV1", "remark": "listed apart in the source"}, "Mycobacterium avium [40]": {"tested_on": "Mycobacterium avium", "conditions": "isolate MAV2", "remark": "listed apart in the source"}, "Mycobacterium avium [41]": {"tested_on": "Mycobacterium avium", "conditions": "isolate MAV3", "remark": "listed apart in the source"}, "Mycobacterium avium [42]": {"tested_on": "Mycobacterium avium", "conditions": "isolate MAV4", "remark": "listed apart in the source", "description": "Inhibition of multidrug resistance efflux pump in Mycobacterium avium isolate MAV4 assessed as potentiation of ethidium bromide-induced antibacterial activity by measuring ethidium bromide MIC at 1/4 MIC incubated for 3 days by MTT assay"}, "[43]": {"tested_on": "Mycobacterium avium subsp. avium ATCC 25291", "remark": "listed apart in the source", "description": "Inhibition of multidrug resistance efflux pump in Mycobacterium avium ATCC 25291 assessed as potentiation of ethidium bromide-induced antibacterial activity by measuring ethidium bromide MIC at 1/2 MIC incubated for 3 days by MTT assay (Rvb = 50 ug/ml)"}}}
{"smiles": "CCCOc1ccc(-c2cn(CCN3CCCCC3)c3ccccc3c2=O)cc1", "values": [{"measurement": "MIC", "setting": "[1]", "result": 256, "unit": "µg/mL"}, {"measurement": "MIC", "setting": "Mycobacterium avium [2]", "result": 256, "unit": "µg/mL"}, {"measurement": "selectivity ratio", "setting": "[3]", "result": "2 to 4"}, {"measurement": "MIC", "setting": "Mycobacterium avium [4]", "result": "> 256", "unit": "µg/mL"}, {"measurement": "MIC", "setting": "Mycobacterium avium [5]", "result": "< 4", "unit": "µg/mL"}, {"measurement": "MIC", "setting": "Mycobacterium avium [6]", "result": 256, "unit": "µg/mL"}, {"measurement": "MIC", "setting": "Mycobacterium avium [7]", "result": "< 4", "unit": "µg/mL"}, {"measurement": "MIC", "setting": "Mycobacterium avium [8]", "result": 128, "unit": "µg/mL"}, {"measurement": "MIC", "setting": "Mycobacterium avium [9]", "result": "< 0.125", "unit": "µg/mL"}, {"measurement": "MIC", "setting": "Mycobacterium avium [10]", "result": 256, "unit": "µg/mL"}, {"measurement": "MIC", "setting": "[11]", "result": "< 0.0625", "unit": "µg/mL"}, {"measurement": "MIC", "setting": "Mycobacterium avium [12]", "result": 128, "unit": "µg/mL"}, {"measurement": "MIC", "setting": "Mycobacterium avium [13]", "result": 128, "unit": "µg/mL"}, {"measurement": "MIC", "setting": "Mycobacterium avium [14]", "result": 64, "unit": "µg/mL"}, {"measurement": "MIC", "setting": "[15]", "result": 32, "unit": "µg/mL"}, {"measurement": "MIC", "setting": "Mycobacterium avium [16]", "result": 512, "unit": "µg/mL"}, {"measurement": "MIC", "setting": "Mycobacterium avium [17]", "result": 256, "unit": "µg/mL"}, {"measurement": "MIC", "setting": "Mycobacterium avium [18]", "result": 8, "unit": "µg/mL"}, {"measurement": "MIC", "setting": "[19]", "result": "< 0.5", "unit": "µg/mL"}, {"measurement": "MIC", "setting": "Mycobacterium avium [20]", "result": 2, "unit": "µg/mL"}, {"measurement": "MIC", "setting": "Mycobacterium avium [21]", "result": 1, "unit": "µg/mL"}, {"measurement": "MIC", "setting": "Mycobacterium avium [22]", "result": 1, "unit": "µg/mL"}, {"measurement": "MIC", "setting": "Mycobacterium avium [23]", "result": 2, "unit": "µg/mL"}, {"measurement": "MIC", "setting": "Mycobacterium avium [24]", "result": "< 0.25", "unit": "µg/mL"}, {"measurement": "MIC", "setting": "[25]", "result": 8, "unit": "µg/mL"}, {"measurement": "MIC", "setting": "Mycobacterium avium [26]", "result": "< 0.125", "unit": "µg/mL"}, {"measurement": "MIC", "setting": "Mycobacterium avium [27]", "result": 8, "unit": "µg/mL"}, {"measurement": "MIC", "setting": "Mycobacterium avium [28]", "result": "< 0.125", "unit": "µg/mL"}, {"measurement": "MIC", "setting": "Mycobacterium avium [29]", "result": 2, "unit": "µg/mL"}, {"measurement": "MIC", "setting": "Mycobacterium avium [30]", "result": 4, "unit": "µg/mL"}, {"measurement": "MIC", "setting": "Mycobacterium avium [31]", "result": 16, "unit": "µg/mL"}, {"measurement": "MIC", "setting": "Mycobacterium avium [32]", "result": 4, "unit": "µg/mL"}, {"measurement": "MIC", "setting": "[33]", "result": "< 0.5", "unit": "µg/mL"}, {"measurement": "MIC", "setting": "[34]", "result": 8, "unit": "µg/mL"}, {"measurement": "MIC", "setting": "Mycobacterium avium [35]", "result": "< 0.195", "unit": "µg/mL"}, {"measurement": "MIC", "setting": "Mycobacterium avium [36]", "result": "< 0.195", "unit": "µg/mL"}, {"measurement": "MIC", "setting": "Mycobacterium avium [37]", "result": 3.12, "unit": "µg/mL"}, {"measurement": "MIC", "setting": "Mycobacterium avium [38]", "result": "< 0.195", "unit": "µg/mL"}, {"measurement": "MIC", "setting": "Mycobacterium avium [39]", "result": 1.56, "unit": "µg/mL"}, {"measurement": "MIC", "setting": "Mycobacterium avium [40]", "result": 6.25, "unit": "µg/mL"}, {"measurement": "MIC", "setting": "Mycobacterium avium [41]", "result": 12.5, "unit": "µg/mL"}, {"measurement": "MIC", "setting": "Mycobacterium avium [42]", "result": 3.12, "unit": "µg/mL"}, {"measurement": "MIC", "setting": "[43]", "result": "< 0.39", "unit": "µg/mL"}]}
